Read-outs that look alike come from different tables or passages of the source.
Experiments:
MycN = target: T1, MycN (Homo sapiens, UniProt P04198); test: Degradation of MycN protein in SK-N-BE(2) cells, JESS/Western blot of lysates; format: cell-based; conditions: SKNBE2, 24 h; for Dmax at 0.5 µM: read-out: % Degradation of MycN (SKNBE2) 24 h, 0.5 μM; for Dmax at 1 µM: read-out: % Degradation of MycN (SKNBE2) 24 h, 1 μM; for Dmax at 3 µM: read-out: % Degradation of MycN (SKNBE2) 24 h, 3 μM; for Dmax at 6 µM: read-out: % Degradation of MycN (SKNBE2) 24 h, 6 μM
T1 construct: endogenous in cells; host or cells: SK-N-BE(2)
T1 sequence (P04198 1-464): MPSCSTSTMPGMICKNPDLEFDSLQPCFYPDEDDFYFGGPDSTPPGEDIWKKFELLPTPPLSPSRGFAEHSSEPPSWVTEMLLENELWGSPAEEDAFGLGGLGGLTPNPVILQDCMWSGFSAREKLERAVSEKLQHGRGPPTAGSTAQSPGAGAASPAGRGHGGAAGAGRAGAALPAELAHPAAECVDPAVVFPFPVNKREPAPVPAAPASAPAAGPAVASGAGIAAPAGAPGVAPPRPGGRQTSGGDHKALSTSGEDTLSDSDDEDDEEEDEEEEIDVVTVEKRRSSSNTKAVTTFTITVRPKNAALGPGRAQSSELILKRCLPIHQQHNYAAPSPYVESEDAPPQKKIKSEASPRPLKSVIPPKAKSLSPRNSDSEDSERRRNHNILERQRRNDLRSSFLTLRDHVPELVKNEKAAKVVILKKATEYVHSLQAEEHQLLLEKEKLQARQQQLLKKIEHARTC
Summary of the method: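 SK-N-BE(2) adherent cells (5E5 per well of a 6 well dish) were grown 24 hrs, then exposed to compounds diluted 1 in 20 in media, with DMSO controls, for 24 hrs. Cells were scraped, pelleted, PBS washed and lysed in RIPA buffer cocktail; after BCA protein quantitation, n-myc was detected by chemiluminescence on JESS/Western blot with tubulin and GAPDH loading controls read in the near infra red channel.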

MycC = target: T2, MycC (Homo sapiens, UniProt P01106); test: Degradation of MycC protein in L363 cells, JESS/Western blot of lysates; format: cell-based; conditions: L-363, 24 h; for Dmax at 6 µM: read-out: % Degradation of MycC (L-363) 24 h, 6 μM; for Dmax at 0.5 µM: read-out: % Degradation of MycC (L-363) 24 h, 0.5 μM; for Dmax at 3 µM: read-out: % Degradation of MycC (L-363) 24 h, 3 μM; for Dmax at 1 µM: read-out: % Degradation of MycC (L-363) 24 h, 1 μM
T2 construct: endogenous in cells; host or cells: L363
Summary of the method: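 L363 suspension cells were seeded at 1E6 cells per well and exposed to compound (stock 10 mM in DMSO) for 24 hrs. Cells were collected, spun down, rinsed with PBS, lysed in RIPA buffer cocktail on ice, clarified and kept at −80 degrees. Lysate protein was quantified by BCA, and c-myc was measured on JESS by chemiluminescence with tubulin and GAPDH loading controls in the NIR channel.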

T2 sequence (P01106 whole entry): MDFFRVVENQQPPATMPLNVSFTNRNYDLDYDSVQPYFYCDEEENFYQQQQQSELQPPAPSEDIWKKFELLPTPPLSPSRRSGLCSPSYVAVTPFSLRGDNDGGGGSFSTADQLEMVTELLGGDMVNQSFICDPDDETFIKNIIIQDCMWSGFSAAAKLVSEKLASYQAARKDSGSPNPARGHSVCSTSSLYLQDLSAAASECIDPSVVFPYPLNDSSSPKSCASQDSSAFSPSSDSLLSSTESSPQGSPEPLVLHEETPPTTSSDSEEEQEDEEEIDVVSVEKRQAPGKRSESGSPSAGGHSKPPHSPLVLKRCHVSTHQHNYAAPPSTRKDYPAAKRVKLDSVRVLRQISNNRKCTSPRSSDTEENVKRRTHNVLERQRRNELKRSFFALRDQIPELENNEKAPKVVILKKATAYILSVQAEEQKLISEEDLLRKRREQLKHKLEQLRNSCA

SMILES	Dmax at 0.5 µM (MycN; SKNBE2 cells, 24 h, 0.5 μM)	Dmax at 1 µM (MycN; SKNBE2 cells, 24 h, 1 μM)	Dmax at 3 µM (MycN; SKNBE2 cells, 24 h, 3 μM)	Dmax at 6 µM (MycN; SKNBE2 cells, 24 h, 6 μM)	Dmax at 6 µM (MycC; L-363 cells, 24 h, 6 μM)	Dmax at 0.5 µM (MycC; L-363 cells, 24 h)	Dmax at 3 µM (MycC; L-363 cells, 24 h, 3 μM)	Dmax at 1 µM (MycC; L-363 cells, 24 h, 1 μM)	Dmax at 0.5 µM (MycN)	Dmax at 1 µM (MycN)	Dmax at 3 µM (MycN)	Dmax at 6 µM (MycN)	Dmax at 1 µM (MycC)	Dmax at 3 µM (MycC)	Dmax at 6 µM (MycC)
CNC[C@@H]1CCN(c2nccc(Nc3cc(C4CC4)[nH]n3)n2)C1 [Compound 21, N-(5-Cyclopropyl-1H-pyrazol-3-yl)-2-[(3S)-3-(methylaminomethyl)pyrrolidin-1-yl]pyrimidin-4-amine]	20 to 49%	< 20%	20 to 49%	20 to 49%	20 to 49%	–	< 20%	–	–	–	–	–	–	–	–
CN1C[C@H]2CN(c3nccc(Nc4cc(C5CC5)[nH]n4)n3)C[C@H]21 [Compound 40, N-(5-Cyclopropyl-1H-pyrazol-3-yl)-2-[(1S,5S)-6-methyl-3,6-diazabicyclo[3.2.0]heptan-3-yl]pyrimidin-4-amine]	–	–	< 20%	< 20%	–	< 20%	< 20%	< 20%	–	–	–	–	–	–	–
N#CC1(CN)CCCN(c2nccc(Nc3cc(C4CC4)[nH]n3)n2)C1 (stereo not shown) [Compound 119, 3-(Aminomethyl)-1-[4-[(5-cyclopropyl-1H-pyrazol-3-yl)amino]pyrimidin-2-yl]piperidine-3-carbonitrile]	–	–	–	–	–	–	–	–	50 to 79%	50 to 79%	80 to 100%	80 to 100%	50 to 79%	80 to 100%	80 to 100%
NCC12CC(C1)N(c1nccc(Nc3cc(C4CC4)[nH]n3)n1)C2 [Compound 30, 2-[4-(aminomethyl)-2-azabicyclo[2.1.1]hexan-2-yl]-N-(5-cyclopropyl-1H-pyrazol-3-yl)pyrimidin-4-amine]	–	–	–	–	–	–	–	–	< 20%	50 to 79%	80 to 100%	80 to 100%	20 to 49%	80 to 100%	80 to 100%
NC[C@@H]1CN(c2nccc(Nc3cc(C4CC4)[nH]n3)n2)C[C@@H]1F [Compound 122-1, 2-[(3R,4R)-3-(Aminomethyl)-4-fluoro-pyrrolidin-1-yl]-N-(5-cyclopropyl-1H-pyrazol-3-yl)pyrimidin-4-amine]	20 to 49%	20 to 49%	20 to 49%	80 to 100%	80 to 100%	20 to 49%	80 to 100%	50 to 79%	–	–	–	–	–	–	–
c1cc(Nc2cc(C3CCCC3)[nH]n2)nc(N2CC3(CN4CCC4)CC2C3)n1 [Compound 76, 2-[4-(Azetidin-1-ylmethyl)-2-azabicyclo[2.1.1]hexan-2-yl]-N-(5-cyclopentyl-1H-pyrazol-3-yl)pyrimidin-4-amine]	–	–	–	–	–	–	–	–	–	< 20%	80 to 100%	80 to 100%	–	< 20%	80 to 100%
CNC[C@H]1CCN(c2nccc(Nc3cc(C4CC4)[nH]n3)n2)C1 [Compound 7, (R)—N-(5-Cyclopropyl-1H-pyrazol-3-yl)-2-(3-((methylamino)methyl)pyrrolidin-1-yl)pyrimidin-4-amine]	< 20%	< 20%	50 to 79%	80 to 100%	–	–	–	< 20%	–	–	–	–	–	–	–

The next lines start with results.

Dmax at 0.5 µM (MycN; SKNBE2 cells, 24 h, 0.5 μM)	Dmax at 1 µM (MycN; SKNBE2 cells, 24 h, 1 μM)	Dmax at 3 µM (MycN; SKNBE2 cells, 24 h, 3 μM)	Dmax at 6 µM (MycN; SKNBE2 cells, 24 h, 6 μM)	Dmax at 6 µM (MycC; L-363 cells, 24 h, 6 μM)	Dmax at 0.5 µM (MycC; L-363 cells, 24 h)	Dmax at 3 µM (MycC; L-363 cells, 24 h, 3 μM)	Dmax at 1 µM (MycC; L-363 cells, 24 h, 1 μM)	SMILES	Dmax at 0.5 µM (MycN)	Dmax at 1 µM (MycN)	Dmax at 3 µM (MycN)	Dmax at 6 µM (MycN)	Dmax at 1 µM (MycC)	Dmax at 3 µM (MycC)	Dmax at 6 µM (MycC)
20 to 49%	20 to 49%	50 to 79%	80 to 100%	80 to 100%	–	–	–	c1cc(Nc2cc(C3CCCC3)[nH]n2)nc(N2CC3(CN4CCOCC4)CC2C3)n1 [Compound 72, N-(5-Cyclopentyl-1H-pyrazol-3-yl)-2-[4-(morpholinomethyl)-2-azabicyclo[2.1.1]hexan-2-yl]pyrimidin-4-amine]	–	–	–	–	–	–	–
20 to 49%	50 to 79%	50 to 79%	80 to 100%	80 to 100%	< 20%	80 to 100%	–	NC[C@@H]1CCN(c2nccc(Nc3cc(C4CCCC4)[nH]n3)n2)C1 [Compound 110, 2-[(3S)-3-(Aminomethyl)pyrrolidin-1-yl]-N-(5-cyclopentyl-1H-pyrazol-3-yl)pyrimidin-4-amine]	–	–	–	–	–	–	–
–	80 to 100%	80 to 100%	80 to 100%	50 to 79%	< 20%	–	< 20%	c1cc(Nc2cc(C3CCCC3)[nH]n2)nc(N2CCC(C3CNC3)C2)n1 (stereo not shown) [Compound 28, 2-[3-(azetidin-3-yl)pyrrolidin-1-yl]-N-(5-cyclopentyl-1H-pyrazol-3-yl)pyrimidin-4-amine]	–	–	–	–	–	–	–
< 20%	20 to 49%	20 to 49%	20 to 49%	< 20%	–	< 20%	–	CN1CC2(CCCN(c3nccc(Nc4cc(C5CCCC5)[nH]n4)n3)C2)C1 [Compound 107, N-(5-cyclopentyl-1H-pyrazol-3-yl)-2-(2-methyl-2,6-diazaspiro[3.5]nonan-6-yl)pyrimidin-4-amine]	–	–	–	–	–	–	–
20 to 49%	20 to 49%	20 to 49%	50 to 79%	50 to 79%	< 20%	20 to 49%	20 to 49%	NC[C@H]1CN(c2nccc(Nc3cc(C4CCCC4)[nH]n3)n2)CCO1 [Compound 187, 2-[(2S)-2-(Aminomethyl)morpholin-4-yl]-N-(5-cyclopentyl-1H-pyrazol-3-yl)pyrimidin-4-amine]	–	–	–	–	–	–	–
20 to 49%	20 to 49%	20 to 49%	50 to 79%	< 20%	< 20%	< 20%	< 20%	CN1CC(C2CCN(c3nccc(Nc4cc(C5CC5)[nH]n4)n3)C2)C1 (stereo not shown) [Compound 38, N-(5-Cyclopropyl-1H-pyrazol-3-yl)-2-[3-(1-methylazetidin-3-yl)pyrrolidin-1-yl]pyrimidin-4-amine]	–	–	–	–	–	–	–
20 to 49%	< 20%	50 to 79%	50 to 79%	80 to 100%	< 20%	20 to 49%	20 to 49%	COC1CN(CC23CC(C2)N(c2nccc(Nc4cc(C5CCCC5)[nH]n4)n2)C3)C1 [Compound 177, N-(5-Cyclopentyl-1H-pyrazol-3-yl)-2-[4-[(3-methoxyazetidin-1-yl)methyl]-2-azabicyclo[2.1.1]hexan-2-yl]pyrimidin-4-amine]	–	–	–	–	–	–	–
